Data from paper PMC5854577, “A common mechanism of proteasome impairment by neurodegenerative disease-associated oligomers” (Nature Communications, 2018).
Starred links: 1 amine or outer side, 2 acyl side, 3 side chain; linkers in the order of their positions; H or OH if unused. Residues, ends and D or L forms follow the SMILES beside them. *: point of attachment. AMC = Cc1cc(=O)oc2cc(N*)ccc12; Suc = O=C(CCC(=O)[*:2])[*:1]

Biological target: T1, Mammalian 20S proteasome (bovine 20S) (Bos taurus, UniProt Q32KL2+Q3MHN0+Q3T0X5+Q5E987)
T1 construct: gene PSMB5; with Proteasome subunit beta type-1; Proteasome subunit beta type-2; Proteasome subunit beta type-3; Proteasome subunit beta type-4
Assay: fluorogenic peptide hydrolysis
Format: biochemical
Conditions: chymotrypsin-like activity; 100 uM substrate, pH 7.4

## Cc1cc(=O)oc2cc(NC(=O)[C@H](Cc3ccc(O)cc3)NC(=O)[C@@H](NC(=O)[C@H](CC(C)C)NC(=O)[C@H](CC(C)C)NC(=O)CCC(=O)O)C(C)C)ccc12 [suc-LLVY-amc] (Suc-LLVY-{AMC})
  fluorogenic peptide hydrolysis: Proteasome activity (linear rate of LLVY-amc hydrolysis)
